In ChEMBL document CHEMBL5032521, “Design, synthesis and anti-tumor evaluation of 1,2,4-triazol-3-one derivatives and pyridazinone derivatives as novel CXCR2 antagonists” (Eur J Med Chem, 2021):
Each block holds one molecule with its values, some of them ahead of it. Active and inactive are the calls of the source. No cut-off for these calls is given here.

Columns and labels:
[1] = biological target: T1, C-X-C chemokine receptor type 2 (Homo sapiens) (UniProt P25025); experiment: Antagonist activity at CXCR2 (unknown origin) at 10 uM by calcium flux assay relative to control; assay type: functional
T1 sequence (whole entry): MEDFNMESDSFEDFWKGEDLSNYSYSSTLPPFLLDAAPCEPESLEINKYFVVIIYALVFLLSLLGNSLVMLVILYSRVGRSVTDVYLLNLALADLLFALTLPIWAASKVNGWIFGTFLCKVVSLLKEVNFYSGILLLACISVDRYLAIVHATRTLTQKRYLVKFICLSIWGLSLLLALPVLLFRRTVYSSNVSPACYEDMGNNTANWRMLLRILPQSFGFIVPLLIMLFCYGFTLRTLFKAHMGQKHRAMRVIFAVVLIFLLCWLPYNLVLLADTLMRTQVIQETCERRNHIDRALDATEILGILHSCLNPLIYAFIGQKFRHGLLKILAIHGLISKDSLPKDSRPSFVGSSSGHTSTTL

[2] = system: HUVEC; experiment: Anti-angiogenesis activity in HUVEC cells assessed as reduction in blood vessel area at 2 uM measured after 12 hrs by inverted microscopic analysis relative to control; assay type: functional, Homo sapiens; set-up: scale not given: the % may be the effect or the level left
[3] = system: MDA-MB-231; experiment: Inhibition of epithelial-mesenchymal transition in human MDA-MB-231 cells assessed as downregulation of beta-catenin expression at 10 uM measured after 24 hrs by Western blot assay; assay type: functional, cell-based
[4] = system: MDA-MB-231; experiment: Induction of ROS production in human MDA-MB-231 cells assessed as increase in mean fluorescence intensity at 10 uM measured after 24 hrs by DCFH-DA staining based inverted microscopic analysis; assay type: functional, cell-based
[5] = system: MDA-MB-231; experiment: Antimigratory activity against human MDA-MB-231 cells assessed as reduction in cell migration at 2 uM measured after 24 hrs by crystal violet staining based transwell assay relative to control; assay type: functional; set-up: scale not given: the % may be the effect or the level left
[6] = system: MDA-MB-231; experiment: Inhibition of epithelial-mesenchymal transition in human MDA-MB-231 cells assessed as downregulation of vimentin expression at 10 uM measured after 24 hrs by Western blot assay; assay type: functional, cell-based
[7] = system: MDA-MB-231; experiment: Antimigratory activity against human MDA-MB-231 cells assessed as reduction in cell migration at 2 uM measured after 24 hrs by wound healing assay relative to control; assay type: functional; set-up: scale not given: the % may be the effect or the level left
[8] = system: MDA-MB-231; experiment: Inhibition of epithelial-mesenchymal transition in human MDA-MB-231 cells assessed as downregulation of fibronectin expression at 10 uM measured after 24 hrs by Western blot assay; assay type: functional, cell-based
[9] = system: MDA-MB-231; experiment: Inhibition of epithelial-mesenchymal transition in human MDA-MB-231 cells assessed as upregulation of E-cadherin expression at 10 uM measured after 24 hrs by Western blot assay; assay type: functional, cell-based
[10] = system: HUVEC; experiment: Down-regulation of VEGF expression in HUVEC cells assessed as 10 uM measured after 24 hrs by Western blot assay; assay type: functional, cell-based; settings: Homo sapiens
[11] = system: MDA-MB-231; experiment: Synergistic antiproliferative activity against human MDA-MB-231 cells assessed as inhibition of cell growth at 10 uM incubated for 72 hrs in presence of Sorafenib by MTT assay; assay type: functional, cell-based; settings: MDA-MB-231, 72 h
[12] = system: MDA-MB-231; experiment: Synergistic antiproliferative activity against human MDA-MB-231 cells assessed as inhibition of cell growth at 25 uM incubated for 72 hrs in presence of Sorafenib by MTT assay; assay type: functional, cell-based; settings: MDA-MB-231, 72 h
[13] = system: MDA-MB-231; experiment: Inhibition of PI3K signalling in human MDA-MB-231 cells assessed as decrease in AKT phosphorylation at 5 to 10 uM measured after 24 hrs by Western blot assay; assay type: cell-based; settings: dose 5-10 µM
[14] = system: MDA-MB-231; experiment: Inhibition of PI3K signalling in human MDA-MB-231 cells assessed as decrease in PI3K phosphorylation at 5 to 10 uM measured after 24 hrs by Western blot assay; assay type: cell-based; settings: dose 5-10 µM
[15] = system: MDA-MB-231; experiment: Antiproliferative activity against human MDA-MB-231 cells assessed as reduction in cell viability measured after 72 hrs by MTT assay; assay type: functional, cell-based; settings: MDA-MB-231, 72 h
[16] = system: Caco-2; experiment: Cytotoxicity against human Caco2 cells; assay type: functional, cell-based

SMILES: Cc1cccc(-n2nc(C(=O)Nc3cccc(C(=O)N(C)C)c3O)n(C)c2=O)c1
inhibition ([1]; filed as antagonist): 43.8%

SMILES: CN(C)C(=O)c1cccc(NC(=O)c2nn(-c3ccc(Cl)c(Cl)c3)c(=O)n2C)c1O
inhibition [1]: 32.3%

SMILES: O=C(Nc1ccc([N+](=O)[O-])cc1O)Nc1ccccc1Br
Activity [2]: 55.2%
inhibition [3]: Active
Activity [4]: Active
Activity [5]: 44%
inhibition [6]: Active
Activity [7]: 52.3%
inhibition [8]: Active
inhibition [9]: Active
Activity [10]: inactive

SMILES: CN(C)C(=O)c1cccc(NC(=O)c2nn(-c3ccccc3)c(=O)n2C)c1O
inhibition [1]: 18.6%

SMILES: CN(C)C(=O)c1cccc(NC(=O)c2nn(-c3ccc(C(C)(C)C)cc3)c(=O)n2C)c1O
inhibition ([1]; filed as antagonist): 40.9%

SMILES: Cc1ccccc1-n1nc(C(=O)Nc2cccc(C(=O)N(C)C)c2O)n(C)c1=O
inhibition ([1]; filed as antagonist): 43.8%

SMILES: CC[C@@H](Nc1c(Nc2cccc(C(=O)N(C)C)c2O)c(=O)c1=O)c1ccc(C)o1 [NAVARIXIN ANHYDROUS]
IC50 [16]: 18.8 µM

SMILES: CN(C)C(=O)c1cccc(NC(=O)c2nn(-c3ccc(C(F)(F)F)cc3)c(=O)n2C)c1O
inhibition [1]: 21.6%

SMILES: CN(C)C(=O)c1cccc(NC(=O)c2nn(-c3ccc(Cl)cc3Cl)c(=O)n2C)c1O
inhibition [1]: 26.6%

SMILES: CNC(=O)c1cc(Oc2ccc(NC(=O)Nc3ccc(Cl)c(C(F)(F)F)c3)cc2)ccn1 [SORAFENIB]
IC50 [15]: 8.52 µM

More lines, main results first:

inhibition ([1]; filed as antagonist): 49.2%
SMILES: C#Cc1ccc(-n2nc(C(=O)Nc3cccc(C(=O)N(C)C)c3O)n(C)c2=O)cc1

inhibition [1]: 11.2%
SMILES: Cc1cccc(-n2nc(C(=O)Nc3cccc(C(=O)N(C)C)c3O)c(C)cc2=O)c1

inhibition [1]: 34.6%
SMILES: COc1ccc(-n2nc(C(=O)Nc3cccc(C(=O)N(C)C)c3O)c(C)cc2=O)cc1

inhibition [1]: 10.9%
SMILES: Cc1cc(=O)n(-c2ccc(Cl)c(Cl)c2)nc1C(=O)Nc1cccc(C(=O)N(C)C)c1O

inhibition [1]: 6.1%
SMILES: Cc1ccccc1-n1nc(C(=O)Nc2cccc(C(=O)N(C)C)c2O)c(C)cc1=O

IC50 [11]: 5.93 µM
inhibition ([1]; filed as antagonist): 69.4%
IC50 [12]: 2.96 µM
IC50 [15]: > 25 µM
SMILES: Cc1cc(=O)n(-c2ccc(C(F)(F)F)cc2)nc1C(=O)Nc1cccc(C(=O)N(C)C)c1O
Activity [2]: 59.2%
inhibition [3]: Active
Activity [4]: Active
Activity [5]: 49.7%
inhibition [6]: Active
Activity [7]: 52%
inhibition [13]: Active
inhibition [14]: Active
inhibition [8]: Active
inhibition [9]: Active
Activity [10]: Active

inhibition [1]: 3.2%
SMILES: Cc1cc(=O)n(-c2ccccc2)nc1C(=O)Nc1cccc(C(=O)N(C)C)c1O

inhibition [1]: 12.7%
SMILES: CN(C)C(=O)c1cccc(NC(=O)c2nn(-c3ccc(F)cc3)c(=O)n2C)c1O

inhibition [1]: -0.8%
SMILES: Cc1cc(=O)n(-c2ccc(F)cc2)nc1C(=O)Nc1cccc(C(=O)N(C)C)c1O

inhibition [1]: 26.9%
SMILES: Cc1ccc(-n2nc(C(=O)Nc3cccc(C(=O)N(C)C)c3O)c(C)cc2=O)cc1

inhibition [1]: -8.2%
SMILES: Cc1cc(=O)n(-c2ccc(Cl)cc2Cl)nc1C(=O)Nc1cccc(C(=O)N(C)C)c1O

inhibition [1]: 27.2%
SMILES: CN(C)C(=O)c1cccc(NC(=O)c2nn(-c3ccc(Cl)cc3)c(=O)n2C)c1O

inhibition [1]: 1.5%
SMILES: C#Cc1ccc(-n2nc(C(=O)Nc3cccc(C(=O)N(C)C)c3O)c(C)cc2=O)cc1

inhibition [1]: 24.3%
SMILES: Cc1ccc(-n2nc(C(=O)Nc3cccc(C(=O)N(C)C)c3O)n(C)c2=O)cc1

inhibition [1]: 20.4%
SMILES: Cc1cc(=O)n(-c2ccc(C(C)(C)C)cc2)nc1C(=O)Nc1cccc(C(=O)N(C)C)c1O
